Where two headings read alike, the source gives them in different places.
Assays:
CYP2D6 = biological target: T1, CYP2D6 (Homo sapiens, UniProt P10635); test: Human liver CYP inhibition assay (cocktail, pooled HLM); format: in vitro ADME
T1 construct: tissue XenoTech; host or cells: pooled human liver microsomes
Experimental: (§1) The main materials used in this experiment were sourced as follows: Zuranolone from BEIWANTABIO Co., Ltd. (Shanghai, China); liver microsomes (rat and human) and CYP isoenzymes (CYP1A2, CYP2C8, CYP2D6, CYP3A4) from XenoTech (Tewksbury, MA, USA); LTK cells from the China Center for Type Culture Collection (CCTCC, Wuhan, China); and CHO cells from the National Certified Cell Bank (Shanghai, China).
(§2) The IC50 values of S9 and Zuranolone on CYP isoenzymes (1A2, 2C8, 2D6, 3A4) were determined in pooled HLM using a cocktail approach, as previously reported.

CYP1A2 = biological target: T2, CYP1A2 (Homo sapiens, UniProt P05177); test: as above; format: in vitro ADME
T2 construct: tissue XenoTech; host or cells: pooled human liver microsomes
T2 sequence (P05177 1-516): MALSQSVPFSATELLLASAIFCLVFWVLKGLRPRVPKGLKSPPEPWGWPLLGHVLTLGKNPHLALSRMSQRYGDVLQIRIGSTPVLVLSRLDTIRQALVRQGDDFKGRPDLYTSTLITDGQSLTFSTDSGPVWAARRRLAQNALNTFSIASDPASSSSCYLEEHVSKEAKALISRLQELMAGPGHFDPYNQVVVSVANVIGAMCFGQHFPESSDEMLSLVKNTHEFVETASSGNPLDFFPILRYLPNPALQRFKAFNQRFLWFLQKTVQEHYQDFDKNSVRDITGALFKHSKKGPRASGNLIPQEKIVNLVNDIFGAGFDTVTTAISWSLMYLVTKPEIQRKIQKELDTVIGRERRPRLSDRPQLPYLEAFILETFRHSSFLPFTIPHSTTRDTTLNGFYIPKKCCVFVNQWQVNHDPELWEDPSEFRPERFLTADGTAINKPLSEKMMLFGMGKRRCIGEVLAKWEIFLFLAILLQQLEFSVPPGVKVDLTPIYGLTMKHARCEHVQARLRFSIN
Experimental: as §1, §2

CYP3A4 = biological target: T3, CYP3A4 (Homo sapiens, UniProt P08684); test: as above; format: in vitro ADME
T3 construct: tissue XenoTech; host or cells: pooled human liver microsomes
T3 sequence (P08684 whole entry): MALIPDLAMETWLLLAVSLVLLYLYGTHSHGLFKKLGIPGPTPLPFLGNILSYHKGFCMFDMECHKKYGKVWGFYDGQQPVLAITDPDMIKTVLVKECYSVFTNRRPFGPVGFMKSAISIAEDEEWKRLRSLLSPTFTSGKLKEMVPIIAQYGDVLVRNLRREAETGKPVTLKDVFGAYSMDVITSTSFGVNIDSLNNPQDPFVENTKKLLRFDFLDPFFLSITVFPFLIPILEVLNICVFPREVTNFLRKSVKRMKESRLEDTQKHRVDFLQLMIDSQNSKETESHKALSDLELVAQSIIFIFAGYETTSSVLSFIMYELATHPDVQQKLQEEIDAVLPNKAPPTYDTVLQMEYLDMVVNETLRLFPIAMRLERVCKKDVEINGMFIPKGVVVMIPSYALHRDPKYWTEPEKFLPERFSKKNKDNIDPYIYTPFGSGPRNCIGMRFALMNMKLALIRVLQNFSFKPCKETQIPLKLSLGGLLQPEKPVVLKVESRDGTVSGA
Experimental: as §1, §2

CYP2C8 = biological target: T4, CYP2C8 (Homo sapiens, UniProt P10632); test: as above; format: in vitro ADME
T4 construct: tissue XenoTech; host or cells: pooled human liver microsomes
T4 sequence (P10632 1-490): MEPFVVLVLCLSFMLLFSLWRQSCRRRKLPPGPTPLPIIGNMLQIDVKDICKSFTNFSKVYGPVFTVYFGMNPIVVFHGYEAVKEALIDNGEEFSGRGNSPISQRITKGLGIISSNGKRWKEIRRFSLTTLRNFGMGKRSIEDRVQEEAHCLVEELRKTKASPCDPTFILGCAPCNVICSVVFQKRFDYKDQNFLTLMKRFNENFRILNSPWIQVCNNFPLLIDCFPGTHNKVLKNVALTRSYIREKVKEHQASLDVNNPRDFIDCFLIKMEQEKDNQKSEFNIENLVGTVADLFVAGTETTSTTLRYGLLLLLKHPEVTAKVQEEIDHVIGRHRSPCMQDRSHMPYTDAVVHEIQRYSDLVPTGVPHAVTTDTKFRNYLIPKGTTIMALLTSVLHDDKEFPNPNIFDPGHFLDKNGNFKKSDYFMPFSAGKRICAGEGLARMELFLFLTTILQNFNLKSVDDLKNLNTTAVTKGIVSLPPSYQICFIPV
Experimental: as §1, §2

α4β3δ GABAA receptor = biological target: T5, α4β3δ GABAA receptor (Homo sapiens, UniProt P28472+P48169); test: Whole-cell electrophysiology of GABA-evoked currents, CHO cells; format: cell-based
T5 construct: expressed in transfected cells; host or cells: CHO cells (transient expression)
T5 sequence (P48169 36-554): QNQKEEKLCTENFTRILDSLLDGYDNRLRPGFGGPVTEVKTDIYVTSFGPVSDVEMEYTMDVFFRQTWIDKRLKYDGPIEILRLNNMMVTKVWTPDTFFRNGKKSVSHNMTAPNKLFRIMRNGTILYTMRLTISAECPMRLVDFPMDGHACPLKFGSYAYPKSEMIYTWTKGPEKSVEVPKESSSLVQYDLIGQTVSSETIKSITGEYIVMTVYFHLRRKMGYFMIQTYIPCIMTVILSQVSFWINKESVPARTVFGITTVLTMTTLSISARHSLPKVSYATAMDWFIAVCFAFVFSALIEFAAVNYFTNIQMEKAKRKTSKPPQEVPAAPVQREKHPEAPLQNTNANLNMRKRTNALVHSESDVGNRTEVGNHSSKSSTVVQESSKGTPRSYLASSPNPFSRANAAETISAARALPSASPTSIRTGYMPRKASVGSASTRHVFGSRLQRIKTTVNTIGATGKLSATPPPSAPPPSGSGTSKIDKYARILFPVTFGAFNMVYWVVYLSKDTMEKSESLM
T5 sequence (P28472 26-473): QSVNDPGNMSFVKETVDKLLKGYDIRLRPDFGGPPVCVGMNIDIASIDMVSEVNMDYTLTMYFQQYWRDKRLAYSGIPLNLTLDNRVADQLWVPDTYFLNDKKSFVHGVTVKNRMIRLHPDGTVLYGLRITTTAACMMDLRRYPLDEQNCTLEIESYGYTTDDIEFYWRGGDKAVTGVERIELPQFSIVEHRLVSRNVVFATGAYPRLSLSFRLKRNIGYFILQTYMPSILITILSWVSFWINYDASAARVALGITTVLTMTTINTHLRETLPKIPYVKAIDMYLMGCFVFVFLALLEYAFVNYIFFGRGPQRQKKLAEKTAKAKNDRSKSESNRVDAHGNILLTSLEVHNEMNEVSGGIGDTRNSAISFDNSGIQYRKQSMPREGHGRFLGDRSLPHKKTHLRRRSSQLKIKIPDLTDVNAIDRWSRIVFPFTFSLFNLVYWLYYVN
T5 sequence (O14764 25-452 partner): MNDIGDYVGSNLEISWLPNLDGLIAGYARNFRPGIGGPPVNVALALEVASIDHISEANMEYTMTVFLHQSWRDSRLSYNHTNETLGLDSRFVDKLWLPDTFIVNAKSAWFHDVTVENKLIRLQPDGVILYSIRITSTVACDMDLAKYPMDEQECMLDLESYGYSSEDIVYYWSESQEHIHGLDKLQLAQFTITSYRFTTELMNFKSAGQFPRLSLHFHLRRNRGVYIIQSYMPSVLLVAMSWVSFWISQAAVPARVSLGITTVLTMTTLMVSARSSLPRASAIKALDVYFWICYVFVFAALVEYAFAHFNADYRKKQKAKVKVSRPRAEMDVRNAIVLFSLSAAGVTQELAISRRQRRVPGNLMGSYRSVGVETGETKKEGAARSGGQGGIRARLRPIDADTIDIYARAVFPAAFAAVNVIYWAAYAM
Experimental: (§3) The α1β2γ2 and α4β3δ GABAA receptor subtypes, representing synaptic and extrasynaptic subunit compositions in neurons, are widely utilized for screening new NAS drugs. In this study, a preliminary SAR study was conducted on a series of Zuranolone analogs using the LogP values predicted by ADMETlab3.0 software, recombinant human GABAA receptor cell lines, and in vitro liver microsome stability assays. The results are summarized in Table 1, Table 2, and Table 3, respectively.
(§4) The effects of Zuranolone and synthetic analogs on GABA-evoked currents were assessed in LTK cells stably expressing α1β2γ2 GABAA receptor subunits (n = 3) or CHO cells transiently expressing α4β3δ receptors (n = 3). Whole-cell mode recordings were conducted using the HEKA EPC-10 amplifier and analyzed with PatchMaster software (version 2x90, HEKA Elektronik, Lambrecht, Germany). High-throughput whole-cell recordings were performed using the Q-Patch method from Sophion. Test substances were dissolved in DMSO (dimethyl sulfoxide) to prepare 10 mmol/L stock solutions, then diluted with perfusion bath solution to concentrations ranging from 0.01 to 10 μmol/L. In this experiment, the effects of Zuranolone and its synthetic analogs on GABA-induced currents were examined in the presence of a submaximal agonist concentration at 1 μmol/L GABA (EC20). Cells were pre-incubated with increasing doses of test substances for 30 s, followed by 2 s of GABA stimulation, and currents were recorded. The maximum efficacy (Emax) of the GABAA receptor is expressed with the current induced by 1 μmol/L GABA taken as 100%, and the percentage after treatment with the test compound is calculated. The EC50 values are determined by fitting the three concentration–response curves recorded from three cells.

α1β2γ2 GABAA receptor = biological target: T6, α1β2γ2 GABAA receptor (Homo sapiens, UniProt P14867+P47870); test: Whole-cell electrophysiology of GABA-evoked currents, LTK cells; format: cell-based; conditions: for Emax: current induced by 1 μmol/L GABA = 100%
T6 construct: expressed in transfected cells
T6 sequence (P14867 28-456): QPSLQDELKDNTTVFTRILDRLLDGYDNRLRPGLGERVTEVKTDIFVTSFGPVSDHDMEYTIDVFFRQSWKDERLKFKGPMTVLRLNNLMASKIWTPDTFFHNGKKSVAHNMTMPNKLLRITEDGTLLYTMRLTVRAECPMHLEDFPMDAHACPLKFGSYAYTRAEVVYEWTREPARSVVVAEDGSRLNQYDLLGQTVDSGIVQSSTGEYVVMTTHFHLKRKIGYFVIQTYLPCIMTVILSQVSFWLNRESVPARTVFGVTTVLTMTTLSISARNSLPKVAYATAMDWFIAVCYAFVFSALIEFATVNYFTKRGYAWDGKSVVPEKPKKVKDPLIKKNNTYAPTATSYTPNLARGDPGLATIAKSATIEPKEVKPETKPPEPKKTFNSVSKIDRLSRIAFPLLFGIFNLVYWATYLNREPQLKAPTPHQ
T6 sequence (P47870 25-512 limits assumed): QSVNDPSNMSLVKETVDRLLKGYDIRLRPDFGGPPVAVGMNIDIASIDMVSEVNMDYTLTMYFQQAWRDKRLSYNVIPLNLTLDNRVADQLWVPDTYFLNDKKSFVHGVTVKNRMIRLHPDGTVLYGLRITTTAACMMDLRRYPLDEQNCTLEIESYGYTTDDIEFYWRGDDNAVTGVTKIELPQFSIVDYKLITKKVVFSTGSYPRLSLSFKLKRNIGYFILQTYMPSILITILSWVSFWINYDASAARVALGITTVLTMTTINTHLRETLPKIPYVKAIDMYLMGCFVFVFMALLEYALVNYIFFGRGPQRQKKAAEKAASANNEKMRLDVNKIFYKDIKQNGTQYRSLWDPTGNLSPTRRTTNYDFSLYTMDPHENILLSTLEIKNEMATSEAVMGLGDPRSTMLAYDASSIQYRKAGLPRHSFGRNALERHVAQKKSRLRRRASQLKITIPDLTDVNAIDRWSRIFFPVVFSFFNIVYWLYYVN
T6 sequence (P18507 40-475 partner): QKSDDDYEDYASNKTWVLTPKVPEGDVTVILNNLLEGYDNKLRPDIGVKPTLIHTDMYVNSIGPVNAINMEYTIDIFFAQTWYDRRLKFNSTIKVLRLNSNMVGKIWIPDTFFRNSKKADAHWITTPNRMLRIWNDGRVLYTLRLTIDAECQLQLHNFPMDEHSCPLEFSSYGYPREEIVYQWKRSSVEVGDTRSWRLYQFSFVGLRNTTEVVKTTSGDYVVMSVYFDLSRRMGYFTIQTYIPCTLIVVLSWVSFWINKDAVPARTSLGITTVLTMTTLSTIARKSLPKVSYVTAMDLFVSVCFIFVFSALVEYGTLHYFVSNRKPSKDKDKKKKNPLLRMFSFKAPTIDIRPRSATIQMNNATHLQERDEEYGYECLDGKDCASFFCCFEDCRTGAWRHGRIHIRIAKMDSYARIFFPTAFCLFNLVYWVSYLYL
Experimental: as §3, §4

[1] = tested on: PTZ-induced acute seizures; test: Pentylenetetrazole (PTZ)-induced seizure test; format: in vivo, rat; conditions: rats; for effect on seizure incidence: oral 6, 12, 24 μmol/kg, PTZ 50 mg/kg; for latency to tonic seizures: n = 6
Experimental: PTZ can trigger dose-dependent tonic seizures through its antagonistic effects on GABAA receptor function. To evaluate target engagement at GABAA receptors, Zuranolone and S9 were tested in a PTZ-induced acute seizure model in rats, which is widely used to assess GABAergic activity. Based on their pharmacokinetic study results, S9 or Zuranolone was administered orally at the same doses (6, 12, and 24 μmol/kg) 1 h prior to PTZ challenge.
We randomly divided rats into 7 groups (n = 6): three same-dose groups for both Zuranolone and S9 (6, 12, 24 μmol/kg) and a vehicle control group (30% SBECD). PTZ can selectively antagonize the GABAA receptors at a dose below 60 mg/kg, while higher doses lead to non-competitive antagonism of GABAA receptors and activation of NMDA receptors. Thus, a dose of 50 mg/kg was applied in this experiment. After intragastric administration of the test drugs or vehicle for 1 h, the animals were injected intraperitoneally with PTZ saline solution at 50 mg/kg. The rats were then placed in observation chambers to monitor the latency of clonic seizures (seizures lasting ≥3 s with LORR) and tonic seizures (the rigid extension of limbs, forming an angle of more than 90° with the body plane) within 1 h.

T1 sequence (P10635 whole entry): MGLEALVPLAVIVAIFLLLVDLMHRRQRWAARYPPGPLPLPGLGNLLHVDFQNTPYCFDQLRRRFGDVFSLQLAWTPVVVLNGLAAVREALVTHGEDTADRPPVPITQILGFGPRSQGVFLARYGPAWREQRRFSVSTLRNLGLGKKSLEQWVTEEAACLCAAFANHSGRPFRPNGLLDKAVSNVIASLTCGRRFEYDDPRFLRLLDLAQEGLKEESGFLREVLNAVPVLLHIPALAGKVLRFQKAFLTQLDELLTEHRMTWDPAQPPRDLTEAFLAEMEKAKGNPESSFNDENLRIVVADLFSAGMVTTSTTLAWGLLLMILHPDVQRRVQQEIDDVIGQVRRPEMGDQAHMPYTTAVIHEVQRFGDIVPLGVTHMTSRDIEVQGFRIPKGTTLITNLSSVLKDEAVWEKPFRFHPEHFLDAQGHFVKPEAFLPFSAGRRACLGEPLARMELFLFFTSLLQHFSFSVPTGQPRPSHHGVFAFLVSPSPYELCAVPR

C[C@@]1(O)CC[C@H]2[C@H](CC[C@@H]3[C@@H]2CC[C@]2(C)[C@@H](C(=O)Cn4cnn(-c5ccnc(OCC(F)(F)F)c5)c4=O)CC[C@@H]32)C1 [S9]
IC50 (CYP2D6; human liver CYP isoenzymes, pooled HLM, read-out: CYP IC50: 2D6): > 30 µM | IC50 (CYP1A2; human liver CYP isoenzymes, pooled HLM, read-out: CYP IC50: 1A2): > 30 µM | IC50 (CYP3A4; human liver CYP isoenzymes, pooled HLM, read-out: CYP IC50: 3A4): > 30 µM | IC50 (CYP2C8; human liver CYP isoenzymes, pooled HLM, read-out: CYP IC50: 2C8): > 30 µM | EC50 (α4β3δ GABAA receptor; CHO cells, 1 μmol/L GABA (EC20), n = 3, read-out: α4β3δ EC50): 0.034 ± 0.01 µM | Emax (α4β3δ GABAA receptor; CHO cells, current induced by 1 μmol/L GABA = 100%, n = 3): 967 ± 118% | efficacy as % of that of Zuranolone (α4β3δ GABAA receptor; extrasynaptic GABAA receptors): 71% | potency as % of that of Zuranolone (α4β3δ GABAA receptor; extrasynaptic GABAA receptors): 270% | EC50 (α1β2γ2 GABAA receptor; LTK cells, 1 μmol/L GABA (EC20), n = 3, read-out: α1β2γ2 EC50): 0.05 ± 0.01 µM | Emax (α1β2γ2 GABAA receptor; LTK cells, n = 3): 675 ± 163% | enhanced GABAA receptor potency compared to S28 (α1β2γ2 GABAA receptor; S28 previously reported ref 25): over 1 fold | efficacy as % of that of Zuranolone (α1β2γ2 GABAA receptor; synaptic GABAA receptors): 76% | potency as % of that of Zuranolone (α1β2γ2 GABAA receptor; synaptic GABAA receptors): 250% | efficacy as % of that of Zuranolone (α1β2γ2 GABAA receptor; synaptic and extrasynaptic GABAA receptors, not separated): approximately 75% | effect on seizure incidence [1]: neither compound significantly affected seizure incidence

C[C@@]1(O)CC[C@H]2[C@H](CC[C@@H]3[C@@H]2CC[C@]2(C)[C@@H](C(=O)Cn4cc(C#N)cn4)CC[C@@H]32)C1 [Zuranolone]
IC50 (CYP2D6): > 30 µM | IC50 (CYP1A2): > 30 µM | IC50 (CYP3A4): > 30 µM | IC50 (CYP2C8): > 30 µM | EC50 (α4β3δ GABAA receptor): 0.093 ± 0.01 µM | EC50 (α1β2γ2 GABAA receptor): 0.123 ± 0.02 µM | Emax (α1β2γ2 GABAA receptor; LTK cells, n = 3): 894 ± 40% | latency to tonic seizures ([1]; oral 12 μmol/kg 1 h before PTZ 50 mg/kg i.p.): 1748.0 ± 555.0 s | latency to tonic seizures ([1]; oral 24 μmol/kg 1 h before PTZ 50 mg/kg i.p.): 2995.0 ± 430.6 s | effect on seizure incidence [1]: neither compound significantly affected seizure incidence

Source: paper PMC12073189, “Synthesis and Evaluation of a Novel Zuranolone Analog with High GABAA Receptor PAM Activity and Excellent Pharmacokinetic Profiles” (Molecules, 2025)
